# Data published in patent US9206159B2, “Piperazine-piperidine compounds as hepatitis C virus inhibitors” (Theravance Biopharma R&D IP, LLC, priority 2012, dated 2015).
# Tested on: HCV genotype 1a replicon cell line
# Experiment: HCV Genotype 1a Replicon Assay
# Assay type: cell-based, hepatitis C virus
# Conditions: Huh7.5 cell background, NS3-specific protease activity in lysates, 48 or 72 hours; for EC50: Hepatitis C virus, read-out: Genotype 1a (pEC50 class) (converted)
# Procedure: Assay 2: HCV Genotype 1a Replicon Assay
# The HCV genotype 1a replicon cell line was obtained from Apath LLC (APC89; Huh7.5 cell background). This subgenomic replicon contains the N-terminus of the HCV core protein fused to the neomycin-resistance selectable marker. The EMCV IRES lies downstream and drives expression of the non-structural proteins NS3-NS5B. Compound potencies were determined using the NS3-specific protease activity in lysates as a measurement of compound inhibition of replicon levels.
# Cells were grown at 37° C. in a 5% CO2 humidified incubator in DMEM (Invitrogen) with 10% FBS (HyClone), 1×NEAA (Invitrogen), 1× Pen-Strep (Invitrogen), and 850 μg/mL G418 (Invitrogen). On day 1 of the assay, cells were plated at 15,000 cells/well in black 96-well tissue culture plates (Costar) in 200 μL media lacking G418. Four hours later, once the cells had adhered, the media was removed and replaced with media (no G418) containing dose-responses of test compounds. Compounds were initially diluted in DMSO and then diluted another 200× in media to bring the final DMSO concentration down to 0.5%. The cells were incubated with test compounds for 48 or 72 hours. At the end of the incubation period, media and compound were removed from the plates.
# To determine the NS3-specific protease activity in lysates, the cells were lysed at room temperature in 50 μL/well of 50 mM Hepes pH 7.5, 150 mM NaCl, 15% Glycerol, 0.15% Triton X-100, 10 mM DTT for 20 minutes with shaking. 50 μL of an NS3/4a protease-specific FRET substrate (Anaspec RET SI Cat#22991) was then added to the wells at a final concentration of 15 μM. The plates were incubated at 37° C. for 20 minutes, which corresponds to a timepoint at which the protease activity is still in the linear phase. Protease activity was determined by measuring fluorescence (Excitation: 340 nm; Emission: 509 nm).
# To analyze the data, the fluorescence was plotted vs. the compound concentration, and EC50 values were determined from a 4-parameter robust fit model using GraphPad Prism software.
smiles,measurement,value
COC(=O)N[C@H](C(=O)N1C[C@@H](C)C[C@H]1c1nc(-c2ccc(-c3cc(Cl)c(NC(=O)N4CCC(N5CCN(C(=O)[C@H]6CC6(C)C)[C@@H](C)C5)CC4)cc3OC(F)(F)F)cc2)c[nH]1)C(C)C [Example 4-2],Genotype 1a (pEC50 class),"C (C represents pEC50 between and 9 and about 10, (EC50 between 1 nM and 0.1 nM))"
CNC(=O)N1CCC(N2CCN(C(=O)Nc3ccc(-c4ccc(-c5c[nH]c([C@@H]6CCCN6C(=O)[C@@H](NC(=O)OC)C(C)C)n5)cc4)c(OC(F)(F)F)c3)CC2)CC1 [Example 1-24],Genotype 1a (pEC50 class),"C (C represents pEC50 between and 9 and about 10, (EC50 between 1 nM and 0.1 nM))"
COC(=O)N[C@H](C(=O)N1C[C@@H](C)C[C@H]1c1nc2c(ccc3cc(-c4ccc(NC(=O)N5CCN(C6CCN(C(=O)C(C)(C)C)CC6)CC5)cc4OC(F)(F)F)ccc32)[nH]1)C1CCOCC1 [Example 7-2],EC50,< 0.1 nM
COC(=O)N[C@H](C(=O)N1C[C@@H](OC)C[C@H]1c1nc(-c2ccc(-c3ccc(NC(=O)N4CCN(C5CCN(C(=O)C(C)(C)CO)CC5)CC4)cc3OC(F)(F)F)cc2)c[nH]1)C(C)C [Example 5-5],EC50,0.1 to 1 nM
COC(=O)NC(C(=O)N1CCCC1c1nc(-c2ccc(-c3ccc(NC(=O)N4CCN(C5CCN(C(=O)OC(C)(C)C)CC5)C(C)C4)cc3OC(F)(F)F)cc2)c[nH]1)C(C)C (stereo not shown) [Example 1-38],Genotype 1a (pEC50 class),B (B represents pEC50 between 8 and 9 (EC50 between 1 and 10 nM))
COC(=O)N[C@H](C(=O)N1C[C@@H](OC)C[C@H]1c1nc(-c2ccc(-c3ccc(NC(=O)N4CCN(C5CCN(C(=O)C6CCCC6(C)C)CC5)CC4)cc3OC(F)(F)F)cc2)c[nH]1)C(C)C (stereo partly shown) [Example 5-4],EC50,0.1 to 1 nM
COC(=O)N[C@H](C(=O)N1C[C@@H](C)C[C@H]1c1nc(-c2ccc(-c3ccc(NC(=O)N4CCN(C5CCN(C(=O)C6CC6)CC5)CC4)cc3OC(F)(F)F)cc2)c[nH]1)C(C)C [Example 2-1],Genotype 1a (pEC50 class),D (D represents pEC50>10 (EC50<0.1 nM))
COC(=O)N[C@H](C(=O)N1CCC(N2CCN(C(=O)Nc3ccc(-c4ccc(-c5c[nH]c([C@@H]6CCCN6C(=O)[C@@H](NC(=O)OC)C(C)C)n5)cc4)cc3)CC2)CC1)C(C)C [Example 1-6],Genotype 1a (pEC50 class),A (A represents a pEC50 value between 6 and 8 (EC50 between 1 μM and 10 nM))
COC(=O)N[C@H](C(=O)N1C[C@@H](C)C[C@H]1c1nc(-c2ccc(-c3ccc(NC(=O)N4CCN(C5CCN(C(=O)C6CC6)CC5)CC4)cc3OC(F)(F)F)cc2)c(Cl)[nH]1)C(C)C [Example 2-26],Genotype 1a (pEC50 class),D (D represents pEC50>10 (EC50<0.1 nM))
COC(=O)N[C@H](C(=O)N1C[C@@H](C)C[C@H]1c1nc2c(ccc3cc(-c4ccc(NC(=O)N5CCN(C6CCN(C(=O)OC(C)(C)C)CC6)CC5)cc4OC(F)(F)F)ccc32)[nH]1)C1CCOCC1 [Example 7-1],EC50,< 0.1 nM
CNC(=O)N1CCC(N2CCN(C(=O)Nc3cc(OC(F)(F)F)c(-c4ccc(-c5c[nH]c([C@@H]6C[C@H](C)CN6C(=O)[C@@H](NC(=O)OC)C(C)C)n5)cc4)cc3F)CC2)CC1 [Example 2-4],Genotype 1a (pEC50 class),D (D represents pEC50>10 (EC50<0.1 nM))
COC(=O)N[C@H](C(=O)N1C[C@@H](C)C[C@H]1c1nc(-c2ccc(-c3cc(Cl)c(NC(=O)N4CCN(C5CCN(C(=O)OC(C)(C)C)CC5)CC4)cc3OC(F)(F)F)cc2)c[nH]1)C(C)C [Example 2-8],Genotype 1a (pEC50 class),"C (C represents pEC50 between and 9 and about 10, (EC50 between 1 nM and 0.1 nM))"
COC(=O)N[C@H](C(=O)N1CCC[C@H]1c1nc(-c2ccc(-c3ccc(NC(=O)N4CCN(C5CCN(C(=O)OCc6ccccc6)CC5)CC4)cc3)cc2)c[nH]1)C(C)C [Example 1-2],Genotype 1a (pEC50 class),B (B represents pEC50 between 8 and 9 (EC50 between 1 and 10 nM))
COC(=O)NC(C(=O)N1CCCC1c1nc(-c2ccc(-c3ccc(NC(=O)N4CCN(C5CCN(C(=O)C6CC6)CC5)C(C)C4)cc3OC(F)(F)F)cc2)c[nH]1)C(C)C (stereo not shown) [Example 1-40],Genotype 1a (pEC50 class),B (B represents pEC50 between 8 and 9 (EC50 between 1 and 10 nM))
COC(=O)N[C@H](C(=O)N1CCC[C@H]1c1nc(-c2ccc(-c3ccc(NC(=O)N4CCN(C5CCN(C(=O)OC(C)(C)C)CC5)C[C@H]4C)cc3OC(F)(F)F)cc2)c[nH]1)C(C)C [Example 1-19],Genotype 1a (pEC50 class),"C (C represents pEC50 between and 9 and about 10, (EC50 between 1 nM and 0.1 nM))"
COC(=O)N[C@H](C(=O)N1CCC[C@H]1c1nc(-c2ccc(-c3ccc(NC(=O)N4CCN(C5CCN(C(=O)[C@H]6CC6(C)C)CC5)CC4)cc3)cc2)c[nH]1)C(C)C [Example 1-3],Genotype 1a (pEC50 class),"C (C represents pEC50 between and 9 and about 10, (EC50 between 1 nM and 0.1 nM))"
COC(=O)N[C@H](C(=O)N1CCC[C@H]1c1nc(-c2ccc(-c3ccc(NC(=O)N4CCC(N5CCN(C(=O)OC(C)(C)C)[C@H](C)C5)CC4)cc3OC(F)(F)F)cc2)c[nH]1)C(C)C [Example 3-7],Genotype 1a (pEC50 class),B (B represents pEC50 between 8 and 9 (EC50 between 1 and 10 nM))
COC(=O)N[C@H](C(=O)N1C[C@@H](C)C[C@H]1c1nc(-c2ccc(-c3ccc(NC(=O)N4CCN(C5CCN(C(=O)[C@H]6CC6(C)C)CC5)CC4)cc3OC(F)(F)F)cc2)c[nH]1)C(C)C [Example 2-11],Genotype 1a (pEC50 class),D (D represents pEC50>10 (EC50<0.1 nM))
COC(=O)N[C@H](C(=O)N1CCC[C@H]1c1nc(-c2ccc(-c3ccc(NC(=O)N4CCC(N5CCN(C(=O)[C@H]6CC6(C)C)[C@H](C)C5)CC4)cc3OC(F)(F)F)cc2)c[nH]1)C(C)C [Example 3-8],Genotype 1a (pEC50 class),B (B represents pEC50 between 8 and 9 (EC50 between 1 and 10 nM))
COC(=O)N[C@H](C(=O)N1CCC[C@H]1c1nc(-c2ccc(-c3ccc(NC(=O)N4CCN(C5CCN(C(=O)C6CC6)CC5)C[C@@H]4C)cc3OC(F)(F)F)cc2)c[nH]1)C(C)C [Example 1-41],Genotype 1a (pEC50 class),B (B represents pEC50 between 8 and 9 (EC50 between 1 and 10 nM))
COC(=O)N[C@H](C(=O)N1C[C@@H](C)C[C@H]1c1nc(-c2ccc(-c3cc(Cl)c(NC(=O)N4CCN(C5CCN(C(=O)C6CC67CC7)CC5)CC4)cc3OC(F)(F)F)cc2)c[nH]1)C(C)C (stereo partly shown) [Example 2-24],Genotype 1a (pEC50 class),B (B represents pEC50 between 8 and 9 (EC50 between 1 and 10 nM))
"COC(=O)N[C@H](C(=O)N1CCC[C@H]1c1nc(-c2ccc(-c3ccc(NC(=O)N4CCN(C5CCN(C(=O)C6CC6)CC5)[C@@H](C)C4)cc3OC(F)(F)F)cc2)c[nH]1)C(C)C [Example 1, ((S)-1-{(S)-2-[4-(4′-{[(S)-4-(1-Cyclopropanecarbonyl-piperidin-4-yl)-3-methyl-piperazine-1-carbonyl]-amino}-2′-trifluoromethoxy-biphenyl-4-yl)-1H-imidazol-2-yl]-pyrrolidine-1-carbonyl}-2-methyl-propyl)-carbamic acid methyl ester]",EC50,0.1 to 1 nM
COC(=O)N[C@H](C(=O)N1C[C@@H](C)C[C@H]1c1nc(-c2ccc(-c3cc(Cl)c(NC(=O)N4CCC(N5CCN(C(=O)C(C)(C)C)[C@@H](C)C5)CC4)cc3OC(F)(F)F)cc2)c[nH]1)C(C)C [Example 4-3],Genotype 1a (pEC50 class),B (B represents pEC50 between 8 and 9 (EC50 between 1 and 10 nM))
COC(=O)N[C@H](C(=O)N1C[C@@H](C)C[C@H]1c1nc(-c2ccc(-c3cc(Cl)c(NC(=O)N4CCN(C5CCN(C(=O)C(C)(C)C)CC5)CC4)cc3OC(F)(F)F)cc2)c[nH]1)C(C)C [Example 4],EC50,0.1 to 1 nM
COC(=O)N[C@H](C(=O)N1C[C@@H](C)C[C@H]1c1nc(-c2ccc(-c3cc(F)c(NC(=O)N4CCC(N5CCN(C(=O)OC(C)(C)C)CC5)CC4)cc3OC(F)(F)F)cc2)c[nH]1)C(C)C [Example 4-6],Genotype 1a (pEC50 class),B (B represents pEC50 between 8 and 9 (EC50 between 1 and 10 nM))
